Measurements as given in the supplement of paper PMC4628005.

Columns and labels:
Settings in all cases: drug exposure time: 96 h
Erlotinib = compound: C#Cc1cccc(Nc2ncnc3cc(OCCOC)c(OCCOC)cc23)c1 [Erlotinib]
Experimental: (§1)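 Breast cancer cell lines were grown in RPMI 1640 with 10% FBS on collagen I-coated 96-well plates and treated for 96 h (from 24 h after seeding) with 12 dilutions per drug, in triplicate. Growth was read by sulforhodamine B total-protein staining (absorbance 570 nm) relative to diluent control, and IC50 was calculated. The top dose was 1e-5 M for most drugs; Bortezomib went to 2e-5 M and Sirolimus and 17-AAG to 2e-6 M[…].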

Docetaxel = compound: CC(=O)O[C@@]12CO[C@@H]1C[C@H](O)[C@@]1(C)C(=O)[C@H](O)C3=C(C)[C@@H](OC(=O)[C@H](O)[C@@H](NC(=O)OC(C)(C)C)c4ccccc4)C[C@@](O)([C@@H](OC(=O)c4ccccc4)[C@H]21)C3(C)C [Docetaxel]
Experimental: as §1

Paclitaxel = compound: CC(=O)O[C@H]1C(=O)[C@@]2(C)[C@H]([C@H](OC(=O)c3ccccc3)[C@]3(O)C[C@H](OC(=O)[C@H](O)[C@@H](NC(=O)c4ccccc4)c4ccccc4)C(C)=C1C3(C)C)[C@]1(OC(C)=O)CO[C@@H]1C[C@@H]2O [Paclitaxel]
Experimental: as §1

MI-219 = compound: CC(C)(C)C[C@H]1N[C@@H](C(=O)NCC[C@H](O)CO)[C@H](c2cccc(Cl)c2)[C@@]12C(=O)Nc1cc(Cl)c(F)cc12 [MI-219]
Experimental: as §1

Tamoxifen = compound: CC/C(=C(\c1ccccc1)c1ccc(OCCN(C)C)cc1)c1ccccc1 [Tamoxifen]
Experimental: as §1

Sunitinib = compound: CCN(CC)CCNC(=O)c1c(C)[nH]c(/C=C2\C(=O)Nc3ccc(F)cc32)c1C [Sunitinib]
Experimental: as §1

Methotrexate = compound: CN(Cc1cnc2nc(N)nc(N)c2n1)c1ccc(C(=O)N[C@@H](CCC(=O)O)C(=O)O)cc1 [Methotrexate]
Experimental: as §1

Sorafenib = compound: CNC(=O)c1cc(Oc2ccc(NC(=O)Nc3ccc(Cl)c(C(F)(F)F)c3)cc2)ccn1 [Sorafenib]
Experimental: as §1

Vandetanib = compound: COc1cc2/c(=N/c3ccc(Br)cc3F)nc[nH]c2cc1OCC1CCN(C)CC1 [Vandetanib]
Experimental: as §1

Gefitinib = compound: COc1cc2ncnc(Nc3ccc(F)c(Cl)c3)c2cc1OCCCN1CCOCC1 [Gefitinib]
Experimental: as §1

Nutlin-3 = compound: COc1ccc(C2=N[C@@H](c3ccc(Cl)cc3)[C@@H](c3ccc(Cl)cc3)N2C(=O)N2CCNC(=O)C2)c(OC(C)C)c1 [Nutlin-3]
Experimental: as §1

Doxorubicin = compound: COc1cccc2c1C(=O)c1c(O)c3c(c(O)c1C2=O)C[C@@](O)(C(=O)CO)C[C@@H]3O[C@H]1C[C@H](N)[C@H](O)[C@H](C)O1 [Doxorubicin]
Experimental: as §1

Lapatinib = compound: CS(=O)(=O)CCNCc1ccc(-c2ccc3ncnc(Nc4ccc(OCc5cccc(F)c5)c(Cl)c4)c3c2)o1 [Lapatinib]
Experimental: as §1

Panobinostat = compound: Cc1[nH]c2ccccc2c1CCNCc1ccc(/C=C/C(=O)NO)cc1 [Panobinostat]
Experimental: as §1

Brivanib = compound: Cc1cc2c(F)c(Oc3ncnn4cc(OC[C@@H](C)O)c(C)c34)ccc2[nH]1 [Brivanib]
Experimental: as §1

Dasatinib = compound: Cc1nc(Nc2ncc(C(=O)Nc3c(C)cccc3Cl)s2)cc(N2CCN(CCO)CC2)n1 [Dasatinib]
Experimental: as §1

Quisinostat = compound: Cn1cc(CNCC2CCN(c3ncc(C(=O)NO)cn3)CC2)c2ccccc21 [Quisinostat]
Experimental: as §1

Tipifarnib = compound: Cn1cncc1[C@@](N)(c1ccc(Cl)cc1)c1ccc2c(c1)c(-c1cccc(Cl)c1)cc(=O)n2C [Tipifarnib]
Experimental: as §1

Cisplatin = compound: N.N.[Cl][Pt][Cl] [Cisplatin]
Experimental: as §1

Azacitidine = compound: Nc1ncn([C@@H]2O[C@H](CO)[C@@H](O)[C@H]2O)c(=O)n1 [Azacitidine]
Experimental: as §1

Decitabine = compound: Nc1ncn([C@H]2C[C@H](O)[C@@H](CO)O2)c(=O)n1 [Decitabine]
Experimental: as §1

Belinostat = compound: O=C(/C=C/c1cccc(S(=O)(=O)Nc2ccccc2)c1)NO [Belinostat]
Experimental: as §1

Vorinostat = compound: O=C(CCCCCCC(=O)Nc1ccccc1)NO [Vorinostat]
Experimental: as §1

ARQ197 = compound: O=C1NC(=O)[C@@H](c2cn3c4c(cccc24)CCC3)[C@@H]1c1c[nH]c2ccccc12 [ARQ197]
Experimental: as §1

Mitoxantrone = compound: O=C1c2c(O)ccc(O)c2C(=O)c2c(NCCNCCO)ccc(NCCNCCO)c21 [Mitoxantrone]
Experimental: as §1

5-Fluorouracil = compound: O=c1[nH]cc(F)c(=O)[nH]1 [5-Fluorouracil]
Experimental: as §1

Serdemetan = compound: c1ccc2c(CCNc3ccc(Nc4ccncc4)cc3)c[nH]c2c1 [Serdemetan]
Experimental: as §1

17-AAG = compound: C=CCNC1=C2C[C@@H](C)C[C@H](OC)[C@H](O)[C@@H](C)/C=C(\C)[C@H](OC(N)=O)[C@@H](OC)/C=C\C=C(/C)C(=O)NC(=CC1=O)C2=O [17-AAG]
Experimental: (§2)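 Same SRB 96 h IC50 screen on breast cancer cell lines (RPMI 1640 + 10% FBS, collagen I-coated 96-well plates, triplicates, 12 dilutions), for drugs with a different dose range: Bortezomib up to 2e-5 M; Sirolimus and 17-AAG up to 2e-6 M. Sirolimus values at the 2e-6 M top dose are censored.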

Bortezomib = compound: CC(C)C[C@H](NC(=O)[C@H](Cc1ccccc1)NC(=O)c1cnccn1)B(O)O [Bortezomib]
Experimental: as §2

Sirolimus = compound: CO[C@H]1C[C@@H]2CC[C@@H](C)[C@@](O)(O2)C(=O)C(=O)N2CCCC[C@H]2C(=O)O[C@H]([C@H](C)C[C@@H]2CC[C@@H](O)[C@H](OC)C2)CC(=O)[C@H](C)/C=C(\C)[C@@H](O)[C@@H](OC)C(=O)[C@H](C)C[C@H](C)/C=C/C=C/C=C/1C [Sirolimus]
Experimental: as §2

Test System	IC50 (SRB growth assay) (Erlotinib)	IC50 (SRB growth assay) (Docetaxel)	IC50 (SRB growth assay) (Paclitaxel)	IC50 (SRB growth assay) (MI-219)	IC50 (SRB growth assay) (Tamoxifen)	IC50 (SRB growth assay) (Sunitinib)	IC50 (SRB growth assay) (Methotrexate)	IC50 (SRB growth assay) (Sorafenib)	IC50 (SRB growth assay) (Vandetanib)	IC50 (SRB growth assay) (Gefitinib)	IC50 (SRB growth assay) (Nutlin-3)	IC50 (SRB growth assay) (Doxorubicin)	IC50 (SRB growth assay) (Lapatinib)	IC50 (SRB growth assay) (Panobinostat)	IC50 (SRB growth assay) (Brivanib)	IC50 (SRB growth assay) (Dasatinib)	IC50 (SRB growth assay) (Quisinostat)	IC50 (SRB growth assay) (Tipifarnib)	IC50 (SRB growth assay) (Cisplatin)	IC50 (SRB growth assay) (Azacitidine)	IC50 (SRB growth assay) (Decitabine)	IC50 (SRB growth assay) (Belinostat)	IC50 (SRB growth assay) (Vorinostat)	IC50 (SRB growth assay) (ARQ197)	IC50 (SRB growth assay) (Mitoxantrone)	IC50 (SRB growth assay) (5-Fluorouracil)	IC50 (SRB growth assay) (Serdemetan)	IC50 (SRB growth assay) (17-AAG)	IC50 (SRB growth assay) (Bortezomib)	IC50 (SRB growth assay) (Sirolimus)
EVSA-T	> 10000 nM	0.4 nM	1.09 nM	> 10000 nM	4960 nM	2200 nM	6030 nM	2240 nM	2020 nM	7520 nM	> 10000 nM	8.01 nM	2530 nM	3.19 nM	> 10000 nM	> 10000 nM	1.36 nM	18.5 nM	> 10000 nM	3840 nM	2250 nM	85.1 nM	380 nM	218 nM	2.68 nM	1740 nM	1130 nM	5.76 nM	2.74 nM	0.0536 nM
HCC 38	> 10000 nM	0.51 nM	1.39 nM	> 10000 nM	> 10000 nM	9910 nM	12.3 nM	5260 nM	5540 nM	> 10000 nM	> 10000 nM	5.51 nM	5520 nM	6.57 nM	> 10000 nM	115 nM	3.31 nM	294 nM	> 10000 nM	746 nM	132 nM	250 nM	610 nM	131 nM	1.89 nM	2790 nM	443 nM	72.2 nM	5.22 nM	0.166 nM
HCC 70	> 10000 nM	0.539 nM	2.08 nM	> 10000 nM	> 10000 nM	6810 nM	30.1 nM	6250 nM	3960 nM	9360 nM	> 10000 nM	40.6 nM	3750 nM	8.26 nM	> 10000 nM	> 10000 nM	5.48 nM	85.1 nM	> 10000 nM	2380 nM	2360 nM	356 nM	781 nM	324 nM	74.3 nM	5360 nM	1570 nM	37.3 nM	2.84 nM	0.222 nM
HCC 202	6060 nM	1.72 nM	4.3 nM	> 10000 nM	> 10000 nM	> 10000 nM	47.6 nM	5170 nM	3780 nM	8050 nM	> 10000 nM	76.5 nM	199 nM	16.7 nM	> 10000 nM	1200 nM	6.54 nM	> 10000 nM	> 10000 nM	4630 nM	> 10000 nM	487 nM	1130 nM	427 nM	213 nM	7370 nM	5010 nM	49.5 nM	1.51 nM	5.17 nM
HCC 1143	1080 nM	0.306 nM	1.52 nM	> 10000 nM	4990 nM	4730 nM	24.7 nM	6060 nM	1830 nM	1040 nM	> 10000 nM	16.5 nM	2250 nM	11 nM	> 10000 nM	5110 nM	4.84 nM	749 nM	> 10000 nM	2070 nM	148 nM	350 nM	857 nM	481 nM	3.93 nM	1980 nM	921 nM	56.6 nM	4.31 nM	0.62 nM
HCC 1395	> 10000 nM	0.408 nM	1.76 nM	> 10000 nM	7580 nM	8600 nM	1940 nM	6310 nM	7740 nM	> 10000 nM	> 10000 nM	55.5 nM	3750 nM	26.6 nM	> 10000 nM	> 10000 nM	13 nM	469 nM	> 10000 nM	2180 nM	> 10000 nM	1070 nM	2390 nM	381 nM	26.1 nM	3750 nM	1520 nM	140 nM	5.53 nM	0.636 nM
HCC 1419	2720 nM	15.2 nM	33.3 nM	> 10000 nM	4580 nM	9930 nM	164 nM	3450 nM	3540 nM	2680 nM	> 10000 nM	153 nM	28.4 nM	6.31 nM	> 10000 nM	6030 nM	3.8 nM	550 nM	> 10000 nM	> 10000 nM	> 10000 nM	174 nM	542 nM	1210 nM	126 nM	> 10000 nM	2450 nM	14 nM	4.28 nM	0.195 nM
